Test results from article PMC10740156, “Discovery of potential WEE1 inhibitors via hybrid virtual screening” (Frontiers in Pharmacology, 2023).
Where a name gives a salt, the structure may show the parent alone.

Tests used:
PC9 cells [1] = test: Cell apoptosis analysis (Annexin V/PI flow cytometry); assay type: cell-based, human; details: 500 nM, 72 h; for percentage of apoptotic cells (early apoptosis + late apoptosis): blank control 13.24%
Procedure: (§1) For apoptosis detection, Cells were performed with Pharmingen FITC Annexin V Detection KitⅠ(BD Bioscience, Oxford, UK). Briefly, Cells were harvested and washed once with 1×binding buffer and then incubated with Annexin V and Propidium Iodide (PI) for 15 min in the dark at 37°C.
(§2) All samples were acquired by flow cytometry (FACS CantoⅡ, BD Bioscience) and analysed with Flowjo software version 10.4.

A549 cells [2] = test: as above; assay type: cell-based, human; details: 2 μM, 72 h; for percentage of apoptotic cells (early apoptosis + late apoptosis): blank control 9.86%
Procedure: as §1, §2

A549 cells [3] = test: Cell cycle analysis (PI staining flow cytometry); assay type: cell-based, human; details: 2 μM, 24 h
Procedure: (§3) For cell cycle detection, Cells were harvested and gently washed with PBS, and fixed with 70% cold ethanol −20°C overnight. After centrifugation, Cells were retained for precipitation and incubated with PI/RNase Staining Buffer (BD Bioscience, Oxford, United Kingdom) for 15 min in the dark at 37°C.
as §2

WEE1 kinase = WEE1 kinase (Homo sapiens, UniProt P30291); test: Inhibitory activity assay (ADP-Glo kinase assay); assay type: biochemical; details: for IC50: WEE1 kinase; for Inhibition Rate / inhibition at 25 µM: compound 25 μM, relative inhibition rate, Staurosporine (10 µM) as positive control
Sequence of WEE1 kinase (P30291 whole entry): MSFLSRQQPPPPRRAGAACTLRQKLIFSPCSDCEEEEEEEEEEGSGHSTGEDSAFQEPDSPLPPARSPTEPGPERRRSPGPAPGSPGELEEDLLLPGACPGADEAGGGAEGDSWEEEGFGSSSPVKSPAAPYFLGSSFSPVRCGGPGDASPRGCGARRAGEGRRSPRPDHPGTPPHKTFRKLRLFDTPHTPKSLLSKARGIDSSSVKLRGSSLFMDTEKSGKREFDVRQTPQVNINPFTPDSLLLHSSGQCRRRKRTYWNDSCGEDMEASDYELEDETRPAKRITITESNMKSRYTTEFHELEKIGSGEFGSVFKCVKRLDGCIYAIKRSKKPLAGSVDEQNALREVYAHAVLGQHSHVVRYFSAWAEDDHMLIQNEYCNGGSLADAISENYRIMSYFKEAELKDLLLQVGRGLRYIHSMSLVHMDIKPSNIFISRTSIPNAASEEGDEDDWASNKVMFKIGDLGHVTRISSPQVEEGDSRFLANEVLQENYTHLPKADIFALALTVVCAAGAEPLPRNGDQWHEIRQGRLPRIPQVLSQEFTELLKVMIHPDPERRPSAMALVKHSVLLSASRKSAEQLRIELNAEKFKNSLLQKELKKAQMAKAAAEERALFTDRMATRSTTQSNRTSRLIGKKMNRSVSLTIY
Procedure: The tested compounds were dissolved in DMSO to make a 10 mM stock solution, which was further diluted to a drug solution of 25 µM. […] Transfer 20 nL compound to 384 assay plate by Echo 655. […] 8 μL of kinase detection reagent was added to the well, and incubated for 40 min at 25°C. Read the RLU (relative light-emitting unit) signal using the BMG multifunction microplate reader, and the signal intensity is used to characterize the degree of kinase activity. […] Staurosporine is a prototypical ATP-competitive kinase inhibitor in that it binds to many kinases with high affinity. The inhibition rates were calculated using the equations (X: log of inhibitor concentration; Y: % Inhibition). Assays were performed on three independent experiments. Y=Bottom+Top – Bottom/(1+10^ (LogIC50 – X×hillslope))

HuH-7 cells = test: Anti-proliferation activity assay (CCK-8); assay type: cell-based, human
Procedure: (§4) Anti-proliferation activity assay was detected by Cell Counting Kit-8 detection kit (CCK-8, #K1018) provided by Apexbio (United States). In brief, cells were seeded in 96-wells plates at a density of 3 × 10^3/well for 24 h. Then, cells were treated with indicated concentrations of compounds for 72 h. Supernatant was totally removed, and 100 μL of CCK-8 solution was added to each well and cultured for another 1 h at 37°C. The absorbance of plates was measured by SpectraMax M2 (Molecular Devices, San Jose, CA, United States) at 450 nm. […] Assays were performed on three independent experiments.

Bel-7402 cells = test: Anti-proliferation activity assay (CCK-8); assay type: cell-based; details: Homo sapiens, 72 h
Procedure: as §4

A549 cells [4] = test: Anti-proliferation activity assay (CCK-8); assay type: cell-based; details: Homo sapiens, 72 h
Procedure: as §4

PC9 cells [5] = test: Cell cycle analysis (PI staining flow cytometry); assay type: cell-based, human; details: 500 nM, 24 h, compared to blank group
Procedure: as §3, §2

PC9 cells [6] = test: Anti-proliferation activity assay (CCK-8); assay type: cell-based; details: Homo sapiens, PC-9, 72 h
Procedure: as §4

C=CCn1c(=O)c2cnc(Nc3ccc(N4CCN(C)CC4)cc3)nc2n1-c1cccc(C(C)(C)O)n1 [AZD1775, Adavosertib, reference compound]
Q1 (flow cytometry quadrant) (PC9 cells [1]): 0.015
Q2% (late apoptosis rate) (PC9 cells [1]): 5.20%
Q3% (early apoptosis rate) (PC9 cells [1]): 22.0%
Q4 (flow cytometry quadrant) (PC9 cells [1]): 72.8
percentage of apoptotic cells (early apoptosis + late apoptosis) (PC9 cells [1]): 27.20%
Q2% (late apoptosis rate) (A549 cells [2]): 5.52%
Q3% (early apoptosis rate) (A549 cells [2]): 11.1%
Q4 (flow cytometry quadrant) (A549 cells [2]): 83.3
percentage of apoptotic cells (early apoptosis + late apoptosis) (A549 cells [2]): 16.62%
cell cycle distribution (A549 cells [3]): no significant change

CCN1CCN(C(=O)Cc2ccc(Nc3ncc(F)c(Nc4ccc(C(=O)Nc5ccccc5Cl)cc4)n3)cc2)CC1 [Compound 8, TCS7010]
IC50 (WEE1 kinase): 797 nM
Inhibition Rate (WEE1 kinase): 95.45 ± 2.24%
inhibition at 25 µM (WEE1 kinase): ~100%

CNC(=O)c1ccccc1Nc1nc(Nc2ccc(N3CCN(CCCN)CC3)cc2)ncc1Cl [Compound 4, GSK3182571]
IC50 (WEE1 kinase): 1.07 nM
Inhibition Rate (WEE1 kinase): 126.59 ± 1.66%
Q1 (flow cytometry quadrant) (PC9 cells [1]): 0.014
Q2% (late apoptosis rate) (PC9 cells [1]): 4.55%
Q3% (early apoptosis rate) (PC9 cells [1]): 80.2%
Q4 (flow cytometry quadrant) (PC9 cells [1]): 15.2
percentage of apoptotic cells (early apoptosis + late apoptosis) (PC9 cells [1]): 84.75%
Q2% (late apoptosis rate) (A549 cells [2]): 8.55%
Q3% (early apoptosis rate) (A549 cells [2]): 9.18%
Q4 (flow cytometry quadrant) (A549 cells [2]): 82.2
percentage of apoptotic cells (early apoptosis + late apoptosis) (A549 cells [2]): 17.73%
IC50 (HuH-7 cells; 72 h): 875 nM
IC50 (HuH-7 cells; Homo sapiens, Huh-7, 72 h): 880 nM
IC50 (Bel-7402 cells): 147 nM
IC50 (A549 cells [4]): 5170 nM
proportion of cells in the G1 phase (PC9 cells [5]): significantly increased
proportion of cells in the G2 phase (PC9 cells [5]): did not change significantly
cell cycle distribution (A549 cells [3]): no significant change

COc1cc(-c2cc(-c3ccc(N4CCNCC4)cc3)cnc2C)cc(OC)c1OC [Compound 10, LDN-214117]
inhibition at 25 µM (WEE1 kinase): 32.77 ± 0.22%

CNC(=O)c1nn(C)c2c1C(C)(C)Cc1cnc(Nc3ccc(N4CCN(C)CC4)cc3)nc1-2 [Compound 5, Milciclib]
IC50 (WEE1 kinase): 3.77 nM
Inhibition Rate (WEE1 kinase): 137.84 ± 1.08%
IC50 (HuH-7 cells; Homo sapiens, Huh-7, 72 h): 80000 nM
IC50 (PC9 cells [6]): 8880 nM

CNS(=O)(=O)c1ccccc1Nc1nc(Nc2ccc(N3CCN(C)CC3)cc2OC)ncc1Cl [Compound 3, ALK inhibitor 2]
IC50 (WEE1 kinase): 988 nM
Inhibition Rate (WEE1 kinase): 127.17 ± 1.08%

Denfivontinib [Compound 1]
Inhibition Rate (WEE1 kinase): 64.18 ± 1.16%

CN1CCCN(C(=O)c2cccc(-c3ccc(/C=C4/C(=O)Nc5ccc(Cl)cc54)o3)c2)CC1 [Compound 6, CX-6258 hydrochloride]
inhibition at 25 µM (WEE1 kinase): 24.8 ± 2.33%

C[C@@H](Oc1ccc2[nH]nc(/C=C/c3cnn(CCO)c3)c2c1)c1c(Cl)cncc1Cl [Compound 9, LY2874455]
inhibition at 25 µM (WEE1 kinase): 58.2 ± 4.03%

CCN1CCN(Cc2ccc(-c3cc4c(N[C@H](C)c5ccccc5)ncnc4[nH]3)cc2)CC1 [Compound 2, AEE788]
IC50 (WEE1 kinase): 103 nM
Inhibition Rate (WEE1 kinase): 134.70 ± 1.61%
